Measurements: patent US20220259593A1, “CONTROL OF MAMMALIAN GENE DOSAGE USING CRISPR” (The Regents of the University of California, priority 2019, published 2022)

Test system: K562 CRISPRi cells
Test: Perturb-seq pooled growth measurement (sgRNA counts, growth phenotype γ, relative activity)
Format: cell-based, human
Conditions: sequencing read counts; for Perturb-seq pooled growth sgRNA counts, d5: 5 days of growth (day seven after transduction); for Perturb-seq pooled growth sgRNA counts, d10: 10 days of growth (day twelve after transduction); for Perturb-seq pooled growth sgRNA counts, T0: T0 = day two after transduction
In short: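 sgRNA abundance was sequenced from genomic DNA of the same transduced population sampled on days two, seven and twelve. Phenotype γ compares normalized day seven and twelve counts with day two. Day-seven values (five days of growth) define relative sgRNA activity.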

Substance	Perturb-seq pooled growth sgRNA counts, d5	Perturb-seq pooled growth sgRNA counts, d10	Perturb-seq pooled growth sgRNA counts, T0
RAN_+_131356438.23-P1P2_12: sgRNA targeting RAN, GGCGGTCGCTGCGCTTAGGT, SEQ ID NO: 73 (listed as DNA, chemistry not fully specified)	16172	25349	7627
RPL9_+_39460483.23-P1P2_00: sgRNA targeting RPL9, GGATGTTTCTGTGCTCGTGG, SEQ ID NO: 5 (listed as DNA, chemistry not fully specified)	1141	1014	10355
RPL9_+_39460483.23-P1P2_01: sgRNA targeting RPL9, GGATGATTCTGTGCTCGTGG, SEQ ID NO: 51 (listed as DNA, chemistry not fully specified)	1108	1238	4886
RPL9_+_39460483.23-P1P2_04: sgRNA targeting RPL9, GGATGTTTCAGTGCTCGTGG, SEQ ID NO: 53 (listed as DNA, chemistry not fully specified)	3975	4118	5237
RPL9_+_39460483.23-P1P2_05: sgRNA targeting RPL9, GGATGTTTCGGTGCTCGTGG, SEQ ID NO: 52 (listed as DNA, chemistry not fully specified)	2217	2355	4950
RPL9_+_39460483.23-P1P2_07: sgRNA targeting RPL9, GGATGTTTCTGCGCTCGTGG, SEQ ID NO: 54 (listed as DNA, chemistry not fully specified)	7867	9339	7336
RPS14_+_149829238.23-P1P2_00: sgRNA targeting RPS14, GAGGCCCGGGCGCGACAATC, SEQ ID NO: 45 (listed as DNA, chemistry not fully specified)	3190	2984	11846
RPS14_+_149829238.23-P1P2_01: sgRNA targeting RPS14, GAGACCCGGGCGCGACAATC, SEQ ID NO: 46 (listed as DNA, chemistry not fully specified)	1474	1385	4954
RPS14_+_149829238.23-P1P2_02: sgRNA targeting RPS14, GAGGCCCTGGCGCGACAATC, SEQ ID NO: 47 (listed as DNA, chemistry not fully specified)	5497	5538	11519
RPS14_+_149829238.23-P1P2_04: sgRNA targeting RPS14, GAGGCCCGCGCGCGACAATC, SEQ ID NO: 48 (listed as DNA, chemistry not fully specified)	9641	12547	9244
RPS14_+_149829238.23-P1P2_08: sgRNA targeting RPS14, GAGGCCCGGGCTCGACAATC, SEQ ID NO: 50 (listed as DNA, chemistry not fully specified)	11681	17976	4488
RPS14_+_149829238.23-P1P2_13: sgRNA targeting RPS14, GAGGCCCGGGCGCGACAGTC, SEQ ID NO: 49 (listed as DNA, chemistry not fully specified)	9567	12082	7137
RPS15_−_1438413.23-P1P2_00: sgRNA targeting RPS15, GACCAAAGCGATCTCTTCTG, SEQ ID NO: 60 (listed as DNA, chemistry not fully specified)	2912	3376	6757
RPS15_−_1438413.23-P1P2_01: sgRNA targeting RPS15, GACCAAACCGATCTCTTCTG, SEQ ID NO: 64 (listed as DNA, chemistry not fully specified)	23866	39345	9713
RPS15_−_1438413.23-P1P2_02: sgRNA targeting RPS15, GACCAAGGCGATCTCTTCTG, SEQ ID NO: 62 (listed as DNA, chemistry not fully specified)	3113	3548	5051
RPS15_−_1438413.23-P1P2_07: sgRNA targeting RPS15, GACCAAAGCGGTCTCTTCTG, SEQ ID NO: 61 (listed as DNA, chemistry not fully specified)	3595	4631	6337
RPS15_−_1438413.23-P1P2_12: sgRNA targeting RPS15, GACCAAAGCGATCTCTTGTG, SEQ ID NO: 63 (listed as DNA, chemistry not fully specified)	12257	19991	4661
RPS18_+_33239917.23-P1P2_00: sgRNA targeting RPS18, GCTGCGATGCCGCTGGATCA, SEQ ID NO: 40 (listed as DNA, chemistry not fully specified)	1556	1535	6212
RPS18_+_33239917.23-P1P2_01: sgRNA targeting RPS18, GCTGCAATGCCGCTGGATCA, SEQ ID NO: 41 (listed as DNA, chemistry not fully specified)	2658	2571	5202
RPS18_+_33239917.23-P1P2_02: sgRNA targeting RPS18, GCTGGGATGCCGCTGGATCA, SEQ ID NO: 42 (listed as DNA, chemistry not fully specified)	3404	3757	5486
RPS18_+_33239917.23-P1P2_04: sgRNA targeting RPS18, GCTGCGATCCCGCTGGATCA, SEQ ID NO: 44 (listed as DNA, chemistry not fully specified)	9728	13186	5132
RPS18_+_33239917.23-P1P2_08: sgRNA targeting RPS18, GCTGCGATTCCGCTGGATCA, SEQ ID NO: 43 (listed as DNA, chemistry not fully specified)	11101	13839	8535
SEC61A1_−_127771295.23-P1_00: sgRNA targeting SEC61A1, GGCACTGACGTGTCTCTCGG, SEQ ID NO: 83 (listed as DNA, chemistry not fully specified)	2151	2025	11429
SEC61A1_−_127771295.23-P1_01: sgRNA targeting SEC61A1, GGCACTGTCGTGTCTCTCGG, SEQ ID NO: 85 (listed as DNA, chemistry not fully specified)	4006	4229	5308
SEC61A1_−_127771295.23-P1_02: sgRNA targeting SEC61A1, GGCGCTGACGTGTCTCTCGG, SEQ ID NO: 84 (listed as DNA, chemistry not fully specified)	4030	4238	9991
SEC61A1_−_127771295.23-P1_03: sgRNA targeting SEC61A1, GGTACTGACGTGTCTCTCGG, SEQ ID NO: 86 (listed as DNA, chemistry not fully specified)	3530	3563	5904
SEC61A1_−_127771295.23-P1_04: sgRNA targeting SEC61A1, GGCACTGAAGTGTCTCTCGG, SEQ ID NO: 87 (listed as DNA, chemistry not fully specified)	7999	10772	5081
TUBB_+_30688126.23-P1_00: sgRNA targeting TUBB, GCGGCAGGAAGGTTCTGAGA, SEQ ID NO: 23 (listed as DNA, chemistry not fully specified)	2722	1125	13570
TUBB_+_30688126.23-P1_01: sgRNA targeting TUBB, GCAGCAGGAAGGTTCTGAGA, SEQ ID NO: 106 (listed as DNA, chemistry not fully specified)	1319	962	7125
TUBB_+_30688126.23-P1_03: sgRNA targeting TUBB, GCGGCAGCAAGGTTCTGAGA, SEQ ID NO: 108 (listed as DNA, chemistry not fully specified)	1680	1221	4751
